Earlier results on one compound are cited in US9820936B2, “Oral controlled release pharmaceutical compositions of Bepotastine” (LUPIN LIMITED, priority 2011, dated 2017).

For the data set the following is noted: background statement.

Take `O=C(O)CCCN1CCC(O[C@@H](c2ccc(Cl)cc2)c2ccccn2)CC1` [Bepotastine, (+)-(S)-4-[4-[(4-Chlorophenyl)(2-pyridyl)methoxy]piperidino]butyric acid]: the half life is 2.4 ± 0.1 h.
